Data set [1] deals with intracellular proteins of primary human hepatocytes.
Data set [2] concerns primary human hepatocytes.
Data set [3] deals with primary mouse hepatocytes.
Another data set has as its system rainbow trout. The settings on record: in vivo; cited from earlier work.
Data set [4] has as its system primary human hepatocytes. The format is in vitro ADME.

The text below walks through data of PMC10567917 (Archives of Toxicology, 2023).

“And” between values parts separate entries of the source, which are not always exact repeats. Equal entries are not always repeated.

Consider `COc1cc(O)c(C2=CC(=O)N(CCCC[C@H](N)C(=O)O)C2)c2oc(=O)c3c(c12)CCC3=O` [AFB1-Lys, AFB1-lysine], for which, in data set [1], the “AFB1-Lys in proteins of cell lysate” value was “around 1.0 pmol”. Besides, the “detection in culture medium” value in the data set on primary rat hepatocytes is recorded as “detected only in trace amounts”.
For `O=C1CCc2c1c(=O)oc1c3c(cc(O[C@@H]4O[C@H](C(=O)O)[C@@H](O)[C@H](O)[C@H]4O)c21)O[C@H]1OC=C[C@@H]31` [AFP1-Glc, AFP1 glucuronide], the “detection of AFP1-Glc” value in data set [2] is on record as “no AFP1-Glc was detectable”. In data set [3], the “AFP1-Glc level in mouse samples relative to rat samples” value is “about 100 fold”.
`COc1cc2c(c3oc(=O)c4c(c13)[C@@H](O)CC4=O)[C@@H]1C=CO[C@@H]1O2` [AFQ1, aflatoxin Q1]: in the data set on primary rat hepatocytes, the Formation rate is 87 pmol/h and 74 700 pmol/h; the “concentration in culture medium” value was determined as 112 nM. For the same compound, the “carcinogenic potency relative to AFB1” value in the data set with rainbow trout is listed as “about 1%”. Further, the “maximum concentration in culture medium” value in data set [3] turned out to be 25 nM.
As for `COc1cc2c(c3oc(=O)c4c(c13)CCC4=O)C1(O)C=COC1O2` (stereo not shown) [AFM1, aflatoxin M1], the “concentration in culture medium” value in data set [2] was 33 nM and 46 nM. The “maximum concentration in culture medium” value in data set [3] came to 353 nM.
As for `COc1cc2c(c3oc(=O)c4c(c13)CCC4=O)[C@H]1[C@@H](O2)OC(SCC(NC(C)=O)C(=O)O)[C@@H]1O` (stereo partly shown) [AFB1-NAC, AFB1-N-acetylcysteine], in data set [2], the “detection in culture medium” value is reported as “not detected”.
Take `COc1cc2c(c3oc(=O)c4c(c13)CCC4=O)[C@H]1[C@@H](O2)OC(SCC(NC(=O)CCC(N)C(=O)O)C(=O)NCC(=O)O)[C@@H]1O` (stereo partly shown) [AFB1-GSH, AFB1-glutathione]: the “detection in culture medium” value in data set [2] is on record as “not detected”. Besides, the intracellular detection result in data set [4] is listed as “not detected”. For the same compound, in the data set with primary rat hepatocytes, the “concentration in culture medium” value was 72 nM and the “concentration in culture medium (plateau)” value was 415 nM.
Consider `O=C1CCc2c1c(=O)oc1c3c(cc(O)c21)O[C@H]1OC=C[C@@H]31` [AFP1, aflatoxin P1], for which the “detection in culture medium” value in data set [2] is reported as “just formed in trace amounts”; in the data set on primary rat hepatocytes, “detected only in trace amounts”. Also, in data set [3], the “maximum concentration in culture medium” value stood at 896 nM.
Regarding `COc1cc2c(c3oc(=O)c4c(c13)CCC4=O)[C@@H]1C=CO[C@@H]1O2` [AFB1, Aflatoxin B1], in data set [2], the “AFB1 remaining in culture medium” value came out at 8.54 µM and the “concentration in culture medium” value was found to be 636 nM. Also, the “estimated intracellular concentration of AFB1” value in data set [4] is reported as 1 mM. In addition, the “AFB1 remaining in culture medium” value with primary rat hepatocytes came to 3.48 µM. Further, in data set [3], the “AFB1 in culture medium” value is “no longer detectable”, the “AFB1 remaining in culture medium” value is given as 0.2 µM and the “time up to which AFB1 was detectable in culture medium” value is reported as “up to 6 h”.
